Values of other authors in publication PMC7153166 (Elektrophysiologie, 2018).

Experiments:
Type in all cases: cell-based
P2X1-Rezeptor = biological target: T1, P2X1-Rezeptor (Rattus norvegicus, UniProt P47824); assay: two-electrode voltage clamp, Xenopus oocytes
T1 sequence (P47824 1-399): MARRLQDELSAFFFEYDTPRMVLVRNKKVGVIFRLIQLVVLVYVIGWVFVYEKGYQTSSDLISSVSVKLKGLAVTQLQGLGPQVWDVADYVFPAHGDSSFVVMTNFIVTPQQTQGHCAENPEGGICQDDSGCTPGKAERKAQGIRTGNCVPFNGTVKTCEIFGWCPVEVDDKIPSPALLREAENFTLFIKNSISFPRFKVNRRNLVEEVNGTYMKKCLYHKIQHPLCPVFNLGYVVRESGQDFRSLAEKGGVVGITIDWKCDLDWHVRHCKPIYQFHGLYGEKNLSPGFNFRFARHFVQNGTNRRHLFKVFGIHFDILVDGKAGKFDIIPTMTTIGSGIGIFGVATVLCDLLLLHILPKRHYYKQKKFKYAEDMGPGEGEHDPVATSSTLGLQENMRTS

P2X2-Rezeptor = biological target: T2, P2X2-Rezeptor (Rattus norvegicus, UniProt P49653); assay: two-electrode voltage clamp, Xenopus oocytes; conditions: agonist
T2 sequence (P49653 1-472): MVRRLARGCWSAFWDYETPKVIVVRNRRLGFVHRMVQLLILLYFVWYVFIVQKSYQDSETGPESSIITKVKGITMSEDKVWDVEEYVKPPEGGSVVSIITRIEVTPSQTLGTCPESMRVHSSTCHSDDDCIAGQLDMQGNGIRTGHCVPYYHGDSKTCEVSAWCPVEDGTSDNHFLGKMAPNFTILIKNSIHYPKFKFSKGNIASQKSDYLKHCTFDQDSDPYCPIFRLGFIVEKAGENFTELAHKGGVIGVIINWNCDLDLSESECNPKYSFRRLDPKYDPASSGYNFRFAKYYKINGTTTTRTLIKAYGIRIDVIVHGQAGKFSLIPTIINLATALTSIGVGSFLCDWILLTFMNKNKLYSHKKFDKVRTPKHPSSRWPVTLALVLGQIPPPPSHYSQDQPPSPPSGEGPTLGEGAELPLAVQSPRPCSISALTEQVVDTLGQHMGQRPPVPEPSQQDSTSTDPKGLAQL

3a-Protein = 3a-Protein (Severe acute respiratory syndrome-related coronavirus, UniProt P59632)
Chain of 3a-Protein (P59632 whole entry, looked up): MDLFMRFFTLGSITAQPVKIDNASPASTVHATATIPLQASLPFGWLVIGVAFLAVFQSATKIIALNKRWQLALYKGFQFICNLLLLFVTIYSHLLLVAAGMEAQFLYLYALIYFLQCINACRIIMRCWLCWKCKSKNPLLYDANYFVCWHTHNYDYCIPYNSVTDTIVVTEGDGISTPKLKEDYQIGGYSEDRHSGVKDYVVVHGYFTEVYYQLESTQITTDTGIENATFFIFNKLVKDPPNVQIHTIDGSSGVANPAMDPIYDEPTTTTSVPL

Compound | EC50 (P2X1-Rezeptor) [µM] | EC50 (P2X2-Rezeptor) [µM] | IC50 (3a-Protein) [µM]
Nc1ncnc2c1ncn2[C@@H]1O[C@H](COP(=O)(O)OP(=O)(O)OP(=O)(O)O)[C@@H](O)[C@H]1O [ATP] | 0.6 | ~30 | 
Cc1cc(O)c2c(c1)C(=O)c1cc(O)cc(O)c1C2=O [Emodin, 1,3,8-Trihydroxcy-6-methylanthracen-9,10-dion] |  |  | 20
O=c1c(O[C@@H]2O[C@@H](CO)[C@H](O)[C@H]2O)c(-c2ccc(O)cc2)oc2cc(O)cc(O)c12 [Juglanin] |  |  | ~2
